We go through four molecules from patent US6599937B1, “Unsaturated oxyalkylene esters and uses thereof” (Beacon Laboratories, Inc., priority 1997, dated 2003).

The structures appear in SMILES notation. Read-outs that look alike come from different tables or passages of the source.

One assay relates to PC-3. As to the kind of experiment: SRB assay, inhibition of cancer cell proliferation, PC-3. In kind it is cell-based, human. The procedure:
(§1) The inhibition of cell proliferation was measured in the indicated cancer cell lines using the sulforhodamine B (SRB) assay as described by Monks et al., 1991, J. Natl. Can. Inst. 83:757-766. The SRB assay is used to screen for anti-cancer drugs. […] The table provides the dosage of each compound (in mM) which inhibited fifty percent (IC50) or ninety percent (IC90) of proliferation when calculated using the Chou Analysis' Median Effective Dose equation.
On the technique in general: In SRB staining, fixed cells bind dye roughly in proportion to their protein.

Another assay deals with CFPAC. As to the kind of experiment: SRB assay, inhibition of cancer cell proliferation, CFPAC. The class given is cell-based. The procedure:
as §1

A further assay concerns HL-60. The experiment in a line: SRB assay, inhibition of cancer cell proliferation, HL-60. In kind it is cell-based, human. The procedure: (§2) Human promyelocytic leukemia cells (HL-60), human pancreatic carcinoma cells (PaCa-2) and human breast adenocarcinoma cells, pleural effusion cells (MCF-7) can be cultured as follows. Cells are grown in RPMI media with 10% FCS, supplemented with 2 mM glutamine and incubated at 37° C. in a humidified 5% CO2 incubator. Alternatively, cells can be grown in any other appropriate growth medium and conditions which supports the growth of the cell line under investigation. Viability can be determined by trypan blue exclusion. Cells are exposed to a test compound, cultures are harvested at various time points following treatment and stained with trypan blue. The inhibition of cell proliferation was measured in the indicated cancer cell lines using the sulforhodamine B (SRB) assay as described by Monks et al., 1991, J. Natl. Can. Inst. 83:757-766. The SRB assay is used to screen for anti-cancer drugs. […] The table provides the dosage of each compound (in mM) which inhibited fifty percent (IC50) or ninety percent (IC90) of proliferation when calculated using the Chou Analysis' Median Effective Dose equation.

The subject of the next assay is LOX IMVI. The experiment in a line: SRB assay, inhibition of cancer cell proliferation, LOX IMVI. In kind it is cell-based. The procedure: as §1
The next assay concerns NCI-H23. The experiment in a line: SRB assay, inhibition of cancer cell proliferation, NCI-H23. In kind it is cell-based. The procedure: as §1
The test system of a further assay is OVCAR-5. As to the kind of experiment: SRB assay, inhibition of cancer cell proliferation, OVCAR-5. The class given is cell-based. The procedure: as §1
The test system of a further assay is HT29. As to the kind of experiment: SRB assay, inhibition of cancer cell proliferation, HT29. In kind it is cell-based. The procedure: as §1
Another assay concerns SF-295. As to the kind of experiment: SRB assay, inhibition of cancer cell proliferation, SF-295. In kind it is cell-based. The procedure: as §1
The next assay has as its system MCF7. The experiment in a line: SRB assay, inhibition of cancer cell proliferation, MCF7. The class given is cell-based, human. The procedure: as §2
A further assay concerns NCI-H522. The experiment in a line: SRB assay, inhibition of cancer cell proliferation, NCI-H522. The class given is cell-based. As to the method:
as §1

Another assay relates to HL-60 cells. The conditions noted are these: HL-60 cells cultured 3 days. The procedure: Cancer cell differentiation was evaluated in a human leukemia cell line by changes in expression of myelocytic maturation marker CD11b. The level of CD11b was measured on HL-60 cells by flow cytometry using a monoclonal antibody (MAb) against CD11b in a standard indirect immunofluorescence assay. Cells were cultured for 3 days with media or the indicated concentration of DiMeOCOMB. Cultured cells were collected by centrifugation, resuspended at 10^6 cells per 20μ RPMI+10% FCS and incubated with MAb for 30 min at […]. The cells were washed twice in cold PBS+[…] FCS and incubated with a 1:20 dilution of FITC-conjugated F(ab′)^2 fragment of rabbit anti-mouse IgG for 20-30 min at […]. in the dark. After washing the cells twice in cold PBS+10% FCS, the flow cytometry was performed.

Setting [1] is: Homo sapiens, PC-3 cell line, SRB assay, Chou Median Effective Dose equation, read-out: IC50.
The mark [2] stands for this setting: Homo sapiens, PC-3 cell line, SRB assay, Chou Median Effective Dose equation, read-out: IC90.
The mark [3] stands for this setting: CFPAC cell line, SRB assay, Chou Median Effective Dose equation, read-out: IC50.
Setting [4] is: CFPAC cell line, SRB assay, Chou Median Effective Dose equation, read-out: IC90.
The mark [5] stands for this setting: Homo sapiens, HL-60 cell line, SRB assay, Chou Median Effective Dose equation, read-out: IC50.
The mark [6] stands for this setting: Homo sapiens, HL-60 cell line, SRB assay, Chou Median Effective Dose equation, read-out: IC90.
Setting [7] is: Homo sapiens, LOX IMVI cell line, SRB assay, Chou Median Effective Dose equation, read-out: IC50.
The mark [8] stands for this setting: Homo sapiens, LOX IMVI cell line, SRB assay, Chou Median Effective Dose equation, read-out: IC90.
Setting [9] is: Homo sapiens, NCI-H23 cell line, SRB assay, Chou Median Effective Dose equation, read-out: IC50.
[10] abbreviates: Homo sapiens, NCI-H23 cell line, SRB assay, Chou Median Effective Dose equation, read-out: IC90.
The mark [11] stands for this setting: Homo sapiens, OVCAR-5 cell line, SRB assay, Chou Median Effective Dose equation, read-out: IC50.
Setting [12] is: Homo sapiens, OVCAR-5 cell line, SRB assay, Chou Median Effective Dose equation, read-out: IC90.
Where [13] appears, read: Homo sapiens, HT-29, HT29 cell line, SRB assay, Chou Median Effective Dose equation, read-out: IC50.
Where [14] appears, read: Homo sapiens, HT-29, HT29 cell line, SRB assay, Chou Median Effective Dose equation, read-out: IC90.
[15] abbreviates: Homo sapiens, SF-295 cell line, SRB assay, Chou Median Effective Dose equation, read-out: IC50.
The mark [16] stands for this setting: Homo sapiens, SF-295 cell line, SRB assay, Chou Median Effective Dose equation, read-out: IC90.
Where [17] appears, read: Homo sapiens, MCF7 cell line, SRB assay, Chou Median Effective Dose equation, read-out: IC50.
Setting [18] is: Homo sapiens, MCF7 cell line, SRB assay, Chou Median Effective Dose equation, read-out: IC90.
Setting [19] is: Homo sapiens, NCI-H522 cell line, SRB assay, Chou Median Effective Dose equation, read-out: IC50.
Setting [20] is: Homo sapiens, NCI-H522 cell line, SRB assay, Chou Median Effective Dose equation, read-out: IC90.

In the case of `CCCC(=O)OCOC(=O)C=Cc1ccccc1` [COMB, Cinnamoyloxymethyl Butyrate], the IC50 with PC-3 (setting [1]) turned out to be 203 µM; in the assay on CFPAC (setting [3]), 150 µM; in the assay with HL-60 (setting [5]), 443 µM; in the assay with LOX IMVI (setting [7]), 197 µM; in the assay with NCI-H23 (setting [9]) it was 182 µM; in the assay with OVCAR-5 (setting [11]) it was 367 µM. The IC50 is 349 µM in the assay with HT29 (setting [13]), 197 µM in the assay on SF-295 (setting [15]), 196 µM in the assay with MCF7 (setting [17]) and 189 µM with NCI-H522 (setting [19]). The IC90 with PC-3 (setting [2]) was over 4000 µM; with CFPAC (setting [4]), 237 µM; with HL-60 (setting [6]) it was over 4000 µM; with LOX IMVI (setting [8]), 1910 µM; in the assay on NCI-H23 (setting [10]), 249 µM; in the assay on OVCAR-5 (setting [12]), 500 µM. The IC90 in the assay with HT29 (setting [14]) was 492 µM; with SF-295 (setting [16]), over 4000 µM; with MCF7 (setting [18]), over 4000 µM; in the assay with NCI-H522 (setting [20]) it was 249 µM.

As to `CCCC(=O)OCOC(=O)C=Cc1ccc(OC)c(OC)c1` [DiMeOCOMB, 3,4-Dimethyoxycinnamoyloxymethyl Butyrate], the 50% inhibitory concentration (IC50) in the assay on PC-3 (PC-3 cell line, SRB assay, Chou Median Effective Dose equation, read-out: IC50) is 1440 µM; in the assay with CFPAC (setting [3]), 308 µM; in the assay on HL-60 (HL-60 cell line, SRB assay, Chou Median Effective Dose equation, read-out: IC50), 203 µM; with LOX IMVI (LOX IMVI cell line, SRB assay, Chou Median Effective Dose equation, read-out: IC50), 772 µM; with NCI-H23 (NCI-H23 cell line, SRB assay, Chou Median Effective Dose equation, read-out: IC50), 785 µM; in the assay on OVCAR-5 (OVCAR-5 cell line, SRB assay, Chou Median Effective Dose equation, read-out: IC50), 1460 µM. Besides, the IC50 in the assay on HT29 (HT29 cell line, SRB assay, Chou Median Effective Dose equation, read-out: IC50) turned out to be 406 µM; in the assay on SF-295 (SF-295 cell line, SRB assay, Chou Median Effective Dose equation, read-out: IC50), 764 µM; in the assay with MCF7 (MCF7 cell line, SRB assay, Chou Median Effective Dose equation, read-out: IC50), 301 µM; in the assay on NCI-H522 (NCI-H522 cell line, SRB assay, Chou Median Effective Dose equation, read-out: IC50) it was 752 µM. Moreover, the IC90 in the assay with PC-3 (PC-3 cell line, SRB assay, Chou Median Effective Dose equation, read-out: IC90) was 1870 µM; in the assay on CFPAC (setting [4]), 3570 µM; with HL-60 (HL-60 cell line, SRB assay, Chou Median Effective Dose equation, read-out: IC90) it was 248 µM; in the assay with LOX IMVI (LOX IMVI cell line, SRB assay, Chou Median Effective Dose equation, read-out: IC90), 978 µM; with NCI-H23 (NCI-H23 cell line, SRB assay, Chou Median Effective Dose equation, read-out: IC90) it was over 4000 µM; in the assay with OVCAR-5 (OVCAR-5 cell line, SRB assay, Chou Median Effective Dose equation, read-out: IC90) it was 1890 µM. In addition, the IC90 was 798 µM in the assay on HT29 (HT29 cell line, SRB assay, Chou Median Effective Dose equation, read-out: IC90); 977 µM in the assay with SF-295 (SF-295 cell line, SRB assay, Chou Median Effective Dose equation, read-out: IC90); 466 µM in the assay with MCF7 (MCF7 cell line, SRB assay, Chou Median Effective Dose equation, read-out: IC90); 1370 µM in the assay on NCI-H522 (NCI-H522 cell line, SRB assay, Chou Median Effective Dose equation, read-out: IC90). Besides, the figures for the “% CD11b Cells” value with HL-60 cells (concentration 50 μM (media control 12.2)), with HL-60 cells (concentration 100 μM (media control 12.2)) and in the assay on HL-60 cells (concentration 203 μM (media control 12.2)) were 87.5%, 88.6% and 90.4%, respectively.

In the case of `CC(=Cc1ccccc1)C(=O)O` [MeCA, α-methylcinnamic acid, reference compound], the IC50 was over 4000 µM in the assay with PC-3 (setting [1]); 1940 µM with CFPAC (setting [3]); 2600 µM in the assay on HL-60 (setting [5]); 3360 µM in the assay with LOX IMVI (setting [7]); 3270 µM in the assay on NCI-H23 (setting [9]); 3730 µM with OVCAR-5 (setting [11]). Besides, the IC50 with HT29 (setting [13]) is 3960 µM; in the assay with SF-295 (setting [15]) it was over 4000 µM; in the assay on MCF7 (setting [17]), over 4000 µM; in the assay with NCI-H522 (setting [19]), 1980 µM. In addition, the IC90 in the assay with PC-3 (setting [2]), in the assay with CFPAC (setting [4]), in the assay with HL-60 (setting [6]), in the assay with LOX IMVI (setting [8]), with NCI-H23 (setting [10]) and in the assay on OVCAR-5 (setting [12]) was over 4000 µM in each case. Also, the IC90 in the assay with HT29 (setting [14]) was over 4000 µM; with SF-295 (setting [16]) it was over 4000 µM; in the assay with MCF7 (setting [18]) it was over 4000 µM; in the assay on NCI-H522 (setting [20]), 3820 µM.

As to `CC(Cc1ccccc1)C(=O)O` (centres unmarked) [MePPA, 2-methyl-3-phenylpropionic acid, reference compound], the IC50 in the assay on PC-3 (Homo sapiens, PC-3) is over 4000 µM; with CFPAC, 3540 µM; in the assay with HL-60 (Homo sapiens, HL-60), over 4000 µM; in the assay on LOX IMVI (Homo sapiens, LOX IMVI), over 4000 µM; in the assay on NCI-H23 (Homo sapiens, NCI-H23) it was over 4000 µM; with OVCAR-5 (Homo sapiens, OVCAR-5) it was over 4000 µM. Besides, the concentration for half-maximal inhibition (IC50) in the assay on HT29 (Homo sapiens, HT-29) is over 4000 µM; in the assay with SF-295 (Homo sapiens, SF-295) it was over 4000 µM; in the assay with MCF7 (Homo sapiens, MCF7), over 4000 µM; in the assay on NCI-H522 (Homo sapiens, NCI-H522), over 4000 µM. For the same molecule, the IC90 in the assay on PC-3 (Homo sapiens, PC-3) was over 4000 µM; with CFPAC, over 4000 µM; in the assay on HL-60 (Homo sapiens, HL-60), over 4000 µM; in the assay with LOX IMVI (Homo sapiens, LOX IMVI), over 4000 µM; in the assay on NCI-H23 (Homo sapiens, NCI-H23), over 4000 µM; in the assay with OVCAR-5 (Homo sapiens, OVCAR-5), over 4000 µM. Further, the IC90 with HT29 (Homo sapiens, HT-29) is over 4000 µM; in the assay on SF-295 (Homo sapiens, SF-295) it was over 4000 µM; with MCF7 (Homo sapiens, MCF7), over 4000 µM; in the assay with NCI-H522 (Homo sapiens, NCI-H522), over 4000 µM.

What is called IC50 is the concentration at which inhibition is half-maximal. The IC90 is the concentration at which the effect reaches the 90% level.
